{
  "source": "paper PMC11388019",
  "about": "“Autoregulatory mechanism of enzyme activity by the nuclear localization signal of lysine-specific demethylase 1 [drawing 1]” (The Journal of Biological Chemistry, 2024)",
  "key": {"ΔN LSD1-CoREST [1]": {"target": "T1, ΔN LSD1-CoREST (Homo sapiens, UniProt O60341+Q9UKL0)", "T1 construct": "The N terminally truncated (aa 171–852) LSD1 plasmid (pGEX-6P-1-ΔN LSD1); GST (cleaved yes); made in house; host or cells: E. coli Rosetta (DE3) pLysS, co-expression", "test": "Horseradish peroxidase (HRP) coupled demethylase assay on 21 a.a. H3K4me2 peptide substrate", "type": "biochemical", "settings": "for effect of peptide on LSD1 demethylation activity (absorbance vs time): 10 μM peptide, 10 μM H3K4me2 21 aa substrate; for effect of peptide on LSD1 demethylation activity (absorbance vs time) / Ki: 0.3 μM ΔN LSD1-CoREST; for effect of peptide on LSD1 demethylation activity (absorbance vs time) / Ki / acts as substrate of LSD1: HRP-coupled assay; for Ki: H3K4me2 (1-21) peptide 10-60 μM, 50 mM Hepes pH 7.5, 25 °C, competitive fit, N = 2, read-out: inhibition constant Ki (Ki app) on H3K4me2 peptide substrate; for fold weaker inhibition (Ki) compared to the NLS peptide: 21 aa H3K4me2 model peptide substrate; for acts as substrate of LSD1: 10 μM peptide alone", "description": "An inhibition study was performed using horseradish peroxidase (HRP) coupled demethylase assay in the presence of NLS, P1, or P2 peptides, using the 21 a.a H3K4me ([2]) peptide as substrate ([9], [38]). […] When a full inhibition study was performed using different concentrations of the 21 a.a. […] Control experiments indicate that the NLS peptide directly influences the LSD1 catalyzed reaction and that inhibition is not an artifact of the HRP-coupled assay system (Fig. S8).\nLSD1-CoREST activity assays were performed using well-established peroxidase-coupled assay that monitors H2O2 production under aerobic conditions ([48]). Initial velocity measurements were measured using a Shimadzu UV2600 UV-Visible spectrophotometer equipped with thermostated cell holder (T = 25 °C). ΔN LSD1-CoREST was buffer exchanged into 25 mM Hepes pH 7.4, 100 mM NaCl, and 5 mM TCEP buffer. Each 150 μl reaction mixture contained 50 mM Hepes (Na) pH 7.5, 0.3 μM ΔN LSD1-CoREST, 1 μg of HRP, 0.1 mM 4-aminoantipyrine, and contained various substrate concentrations (10, 20, 30, 40, and 60 μM). Enzyme reactions were initiated by the addition of substrate; H3K4me2 peptide aa 1 to 21 or the NLS-K114me2 peptide (107–120, dimethylated at K114), into the reaction mixture in quartz cuvette. Activity region monitored was 0 to 30 s, and total time of each measurement was 180 s. Baseline correction was done at 505 to 525 nm. Changes in absorbance were measured at 515 nm wavelength and initial velocity calculations were done using an extinction coefficient of 26,000 M^−1 cm^−1 by Graphpad Prism (http://www.graphpad.com). Initial velocity values obtained from absorbance versus time graph, and they were fitted to Michaelis-Menten equation nonlinear regression and obtained Vmax (maximum velocity), apparent kmax (turnover number) and Km (Michaelis constant).\nPeptide inhibition assays in presence of model substrate were conducted as follows using a peroxidase-coupled assay that monitors H2O2 production under aerobic conditions. A 150 μl reaction mixture contained 50 mM Hepes (Na) pH 7.5, 0.3 μM ΔN LSD1-CoREST, 1 μg of HRP, 0.1 mM 4-aminoantipyrine, 1.0 mM 3,5-dichloro-2- hydroxybenzenesulfonic acid, NLSK114me2 10 μM (as inhibitor and substrate)/NLSp∗ 10 μM/NLS 10 μM/P1 10 μM/P2 10 μM and H3K4me2 21aa substrate 10 μM. Enzyme reactions were initiated by the addition of substrate; H3K4me2 peptide aa (1–21) into the reaction mixture in quartz cuvette. Initial velocity values obtained from absorbance versus time graph were fitted to inhibition models using nonlinear regression fit. Complete kinetics profiles were performed for the NLS and NLSp∗ peptides, where different concentrations of NLS (0, 2.5 μM, 5 μM, 10 μM) or NLSp∗ (0, 10 μM, 40 μM, 100 μM) were incubated with freshly prepared ΔN LSD1-CoREST."}, "ΔN LSD1-CoREST [2]": {"target": "T1, ΔN LSD1-CoREST", "test": "Quantitative Western blot assay of demethylation on H3K4me2 nucleosome substrates in presence of NLS peptide", "type": "biochemical", "settings": "2 μM ΔN LSD1-CoREST, 100 nM H3K4me2 nucleosome (147 bp DNA), 50 mM Hepes pH 8.0, 50 mM KCl, 25 °C, from relative kobs, Hill coefficient set to 1, N = 2; read-out: IC50 for inhibition of demethylation on H3K4me2 nucleosome substrates", "excerpt": "Based on these coupled assay results and data (Fig. 2, C and D), we developed an in vitro quantitative WB assay to monitor LSD1-catalyzed demethylation on H3K4me2 nucleosome substrates. This approach provides enhanced reliability of the antibody reagents as well as a robust measure of the impact of the NLS peptide on LSD1’s ability to demethylate nucleosomes ([39]). A series of time-course assays with increasing NLS peptide measured the fraction of demethylated H3K4me2 nucleosomes containing a 147 bp DNA, and this was visualized using an anti-H3K4me2-specific antibody or a control H3 antibody (Fig. 4, B and C). Here, dividing the H3K4me2 antibody signal by the H3 antibody signal allowed for quantitation of each data point, where the disappearance of H3K4me2 signal directly corresponds to the NLS's ability to impact LSD1’s demethylation activity. The H3K4me2/H3 ratios were normalized at time zero and plotted as a function of time (minutes), and the determined rate constant (kobs) values were evaluated at increasing NLS concentrations (Fig. 4, B and C).\nQuantitative WB activity assays of the ΔN LSD1- CoREST and FL-LSD1- CoREST at 2, 5, 10, and 20 μM concentrations were performed in reaction conditions containing 50 mM Hepes (pH 8.0), 50 mM KCl, 5% glycerol, and 1 mM TCEP and were initiated with 100 nM nucleosome substrate. […]"}, "LSD1": {"target": "LSD1", "settings": "H3K4me2 model peptide substrate, Ki/M, read-out: Ki (Ki app), Table S4, cited from earlier work", "from_the_text": "Comparative (Ki app) data of peptide sequences that inhibit LSD1-catalytzed demethylation on a H3K4me2 model (peptide) substrate."}},
  "note": "“Also recorded” adds a separate entry of the source. Where two headings read alike, the source gives them in different places.",
  "data": [
    {"compound": "CC(=O)NCC(=O)N[C@@H](CCCNC(=N)N)C(=O)N[C@@H](CCCNC(=N)N)C(=O)N[C@H](C(=O)N[C@@H](CO)C(=O)N[C@@H](CCCNC(=N)N)C(=O)N[C@@H](CCCNC(=N)N)C(=O)N[C@@H](CCCCN)C(=O)N[C@@H](CCCNC(=N)N)C(=O)N[C@@H](C)C(=O)N[C@@H](CCCCN)C(=O)N[C@H](C(=O)N[C@@H](CCC(=O)O)C(=O)N[C@@H](Cc1ccc(O)cc1)C(N)=O)C(C)C)[C@@H](C)O", "note": "[NLS]", "values": [
      {"measurement": "effect of peptide on LSD1 demethylation activity (absorbance vs time)", "setting": "ΔN LSD1-CoREST [1]; listed as NLS peptide", "result": "inhibits LSD1; also recorded: both inhibit LSD1 activity; also recorded: acted as an inhibitor"},
      {"measurement": "Ki", "setting": "ΔN LSD1-CoREST [1]", "result": "3.3 ± 0.6", "unit": "µM"},
      {"measurement": "mode of inhibition", "setting": "ΔN LSD1-CoREST [1]; Lineweaver Burk plot, 0-10 μM NLS peptide, H3K4me2 peptide substrate", "result": "competitive inhibition; also recorded: competitive inhibitor"},
      {"measurement": "IC50", "setting": "ΔN LSD1-CoREST [2]", "result": "30.4 ± 3.2", "unit": "µM"}
    ]},
    {"compound": "ARTKQTARKSTG [H3 (1−12), histone H3 peptide residues 1-12]", "values": [
      {"measurement": "Ki", "setting": "LSD1; supplement numbering ref 5, 6", "result": 199, "unit": "µM"}
    ]},
    {"compound": "ARTKmeQTARKSpTGGKAPRKQLA [H3(1-21) K4me S10p]", "values": [
      {"measurement": "Ki", "setting": "LSD1; supplement numbering ref 5, 6", "result": 31, "unit": "µM"}
    ]},
    {"compound": "ARTKmeQTARmeKSTGGKAPRKQLA [H3(1-21)K4meR8me]", "values": [
      {"measurement": "Ki", "setting": "LSD1; supplement numbering ref 7", "result": 100, "unit": "µM"}
    ]},
    {"compound": "ARTKpropQTARKSTGGKAPRKQLA [H3(1-21) K4propargylamine]", "values": [
      {"measurement": "Ki", "setting": "LSD1; supplement numbering ref 9", "result": 16.6, "unit": "µM"}
    ]},
    {"compound": "Ac-GRRDDRRKRAKVEY-NH2 [NLS-p∗]", "values": [
      {"measurement": "effect of peptide on LSD1 demethylation activity (absorbance vs time)", "setting": "ΔN LSD1-CoREST [1]", "result": "do not obstruct LSD1-catalyzed demethylation"},
      {"measurement": "effect of peptide on LSD1 demethylation activity (absorbance vs time)", "setting": "ΔN LSD1-CoREST [1]; listed as NLSp*", "result": "does not inhibit LSD1-catalyzed"},
      {"measurement": "fold weaker inhibition (Ki) compared to the NLS peptide", "setting": "ΔN LSD1-CoREST [1]", "result": "approximately 12 fold"},
      {"measurement": "fold weaker inhibition (Ki) compared to the NLS peptide", "setting": "ΔN LSD1-CoREST [1]; listed as NLSp*", "result": 10, "unit": "fold"},
      {"measurement": "Ki", "setting": "ΔN LSD1-CoREST [1]", "result": "38.7 ± 1.8", "unit": "µM"}
    ]},
    {"compound": "GRRTSRRKme2RAKVEY [NLS-K114me2, dimethylated K114 NLS peptide, aa 107–120]", "values": [
      {"measurement": "acts as substrate of LSD1", "setting": "ΔN LSD1-CoREST [1]", "result": "does not serve as a substrate"},
      {"measurement": "acts as substrate of LSD1", "setting": "ΔN LSD1-CoREST [1]; listed as NLS K114me2", "result": "does NOT act as a substrate of LSD1"},
      {"measurement": "effect of peptide on LSD1 demethylation activity (absorbance vs time)", "setting": "ΔN LSD1-CoREST [1]", "result": "inhibition of demethylation activity was retained"},
      {"measurement": "effect of peptide on LSD1 demethylation activity (absorbance vs time)", "setting": "ΔN LSD1-CoREST [1]; listed as NLS K114 me2", "result": "both inhibit LSD1 activity"}
    ]},
    {"compound": "PRGFLVKRSKKSTPVSYRVR [INSM1 (1−20)]", "values": [
      {"measurement": "Ki", "setting": "LSD1; supplement numbering ref 4", "result": 0.24, "unit": "µM"}
    ]},
    {"compound": "PRSFLVRKPSDPNRKPNYSE [SNAIL (1-20)]", "values": [
      {"measurement": "Ki", "setting": "LSD1; supplement numbering ref 4", "result": 0.21, "unit": "µM"}
    ]},
    {"compound": "QTARKSTGGKAPRKQLA [H3(5-21), histone H3 peptide residues 5-21]", "values": [
      {"measurement": "Ki", "setting": "LSD1; supplement numbering ref 5, 6", "result": 87, "unit": "µM"}
    ]},
    {"compound": "REMDESLANLSEDEYY [P1, negatively charged LSD1 peptide region a.a; 121–136]", "values": [
      {"measurement": "effect of peptide on LSD1 demethylation activity (absorbance vs time)", "setting": "ΔN LSD1-CoREST [1]", "result": "do not inhibit; also recorded: did not influence the demethylation reaction"}
    ]},
    {"compound": "YSEEERNAKAEKEKK [P2, neutral-charged α-helical containing LSD1 peptide region a.a; 137–151]", "values": [
      {"measurement": "effect of peptide on LSD1 demethylation activity (absorbance vs time)", "setting": "ΔN LSD1-CoREST [1]", "result": "do not inhibit; also recorded: did not influence the demethylation reaction"}
    ]}
  ]
}
